The values that follow come from patent publication US9167820B2, “Anti-biofilm compounds” (priority 2011, dated 2015).

Assay [1] concerns P. gingivalis biofilms on streptococci. Put plainly: Inhibition/disruption of P. gingivalis biofilms on streptococci by AgI/II-derived peptide. The format is cell-based. As to the method:
The plate assays above allow a quick examination of the kinetics of Mfa binding and inhibition of bacterial adherence. To determine if the Mfa-catalyzed compounds selected above inhibit the formation of P. gingivalis biofilms, or alternatively are capable of disrupting a pre-existing biofilm, dual species P. gingivalis-S. gordonii biofilms are grown and analyzed as previously described by Daep et al. (Daep, C. A., James, D. M., Lamont, R. J. and Demuth, D. R. 2006. Structural Characterization of Peptide-Mediated Inhibition of P. gingivalis Biofilm Formation. Infect. Immun. 74: 5756-5762; Daep, C. A., Lamont R. J. and Demuth, D. R. 2008. Interaction of P. gingivalis with oral streptococci requires a motif that resembles the eukaryotic nuclear receptor box protein-protein interaction domain. Infect. Immun. 76:3272-3280) using an open flow biofilm culture system. To determine if the inhibitors are capable of disrupting existing P. gingivalis-streptococcal biofilms, pre-formed biofilms are incubated with medium containing the inhibitor and analyzed as above. The inhibitors identified from the assays above are analyzed for in vivo efficacy in preventing P. gingivalis colonization in a mouse model of periodontitis.

The subject of assay [2] is P. gingivalis. The assay is described as follows: Modified Baker mouse model of periodontitis (S. gordonii then P. gingivalis infection), alveolar bone loss. Type of assay: in vivo, Balb/cByJ mice. The conditions noted are these: mice infected with S. gordonii and 10^7 cfu P. gingivalis; peptide added to the inoculum. From the text:
FIG. 6. Alveolar bone loss induced in Balb/cByJ mice in the presence and absence of BAR peptide. Sham infected animals were inoculated with CMC slurry without bacteria.
To determine how effectively the inhibitors limit or prevent P. gingivalis colonization in vivo, a modified Baker mouse model of periodontitis is used. The model is modified by first infecting with and establishing S. gordonii in the oral cavity of Balb/cByJ mice then subsequently challenging with P. gingivalis. In the presence of S. gordonii, a persistent infection of P. gingivalis (detected by 16S rDNA PCR 47 days post infection) can be established using an inoculum of 10^7 cfu. […] Thus, preventing P. gingivalis colonization of mice reduces alveolar bone loss.

Assay [3] relates to P. gingivalis adherence to streptococci (S. gordonii DL-1). The assay is described as follows: Inhibition of P. gingivalis adherence to streptococci, two species biofilm culture model (confocal microscopy). The format is cell-based. The following applies: for P. gingivalis adherence to streptococci at 5 μM: 5 μM compound; for P. gingivalis adherence to streptococci at 20 μM: 20 μM compound; for inhibition of P. gingivalis adherence, dose dependence: tested at final concentrations of 5, 20 or 60 μM, 24 hrs anaerobic incubation. As to the method:
Compounds 25, 27a, 34, 35 and 42 were tested to determine if they inhibited P. gingivalis adherence to streptococci using a two species biofilm culture model. Compounds of the invention (e.g. compounds of formula I) can also be tested using this method. A mid-exponential phase culture of S. gordonii DL-1 was harvested by centrifugation and the cells were suspended in phosphate buffered saline (PBS) at a density of 10^9 cfu/ml. A 1 ml aliquot was labeled with hexidium iodide (30 μM) for 15 minutes with gentle shaking. After washing three times with PBS, streptococci were suspended in growth medium and 100 μl was added to a 12 well microtiter plate (Grace Bio-Labs) and incubated anaerobically for 24 hrs.
P. gingivalis cells from an exponential culture were washed with PBS and labeled by reacting with 4 μg/ml carboxyfluorescein-succinyl ester for 30 minutes at 4° C. After washing three times with PBS, the cells were suspended in PBS at a density of 2×10^7 cfu/ml. The test compounds were dissolved in absolute ethanol to a final concentration of 30 mM and each was diluted into 100 μl P. gingivalis to final concentrations of 5, 20 or 60 μM and incubated for 30 minutes. After removal of unbound streptococci from the micotiter plate, P. gingivalis samples were then added to each well and incubated anaerobically for 24 hrs. A control well contained P. gingivalis that was pre-incubated with PBS alone.
Adherence of P. gingivalis to streptococci was analyzed using confocal laser scanning microscopy on an Olympus FluoView 500 inverted confocal microscope. Image stacks were acquired using Olympus FluoView software and rendered into 3 dimensional projections using Volocity Image Analysis software, where S. gordonii is depicted in red and P. gingivalis is shown in green/yellow. […] Compound 46 reduced P. gingivalis adherence to streptococci by 25% at 25 μM and by approximately 60% at 50 μM.

For “LEAAPKKVQDLLKKANITVKGAFQLFS [BAR peptide]”, the “inhibition of P. gingivalis adherence and formation of biofilms on streptococcal substrates” value in assay [1] is “potently inhibits”. In assay [1] (pre-existing biofilms), the “disruption of existing P. gingivalis biofilms” value is “capable of disrupting existing P. gingivalis biofilms”. Besides, the IC50 in assay [1] (read-out: I50, inhibition of development of P. gingivalis biofilms on streptococci) is 1300 nM. The alveolar bone loss result in assay [2] is on record as “reduced to near sham infected levels”.
Turning to `[N-]=[N+]=Nc1ccc(-c2nc(-c3ccccc3)c(-c3ccccc3)o2)cc1` [Compound 34, 2-(4-azidophenyl)-4,5-diphenyloxazole], in assay [3], the “P. gingivalis adherence to streptococci at 5 μM” value is listed as “significantly reduced” and the “P. gingivalis adherence to streptococci at 20 μM” value is given as “completely blocked adherence”.
In the case of `CC(C)CNc1nc(NCC(C)C)nc(-c2ccccc2)n1` [Compound 46, N^2,N^4-Diisobutyl-6-phenyl-1,3,5-triazine-2,4-diamine], the “reduction of P. gingivalis adherence to streptococci at 25 μM” value in assay [3] (25 μM compound) is recorded as 25%. Also, the “reduction of P. gingivalis adherence to streptococci at 50 μM” value in assay [3] (50 μM compound) is on record as “approximately 60%”.
Turning to `[N-]=[N+]=NCc1nc(-c2ccccc2)c(-c2ccccc2)o1` [Compound 42, 2-(Azidomethyl)-4,5-diphenyloxazole], in assay [3], the “P. gingivalis adherence to streptococci at 20 μM” value is reported as “completely inhibited adherence” and the “inhibition of P. gingivalis adherence, dose dependence” value is reported as “dose dependent inhibition”.
Regarding `c1ccc(-c2nc(-c3ccccc3)c(-c3ccccc3)o2)cc1` [Compound 27a], the “P. gingivalis adherence to streptococci at a concentration of 60” value in assay [3] (concentration of 60 (unit not given)) is reported as “completely blocked adherence”. Besides, the “inhibition of P. gingivalis adherence, dose dependence” value in assay [3] is reported as “dose dependent inhibition”.
In the case of `Cc1nc(-c2ccccc2)c(-c2ccccc2)o1` [Compound 25, 2-Methyl-4,5-diphenyloxazole], the “P. gingivalis adherence to streptococci at 5 μM” value in assay [3] is reported as “completely inhibited”.
Consider `[N-]=[N+]=Nc1cccc(-c2nc(-c3ccccc3)c(-c3ccccc3)o2)c1` [Compound 35, 2-(3-azidophenyl)-4,5-diphenyloxazole], for which the “P. gingivalis adherence to streptococci at 20 μM” value in assay [3] is “significantly reduced adherence”. Besides, the “P. gingivalis adherence to streptococci at 60 μM” value in assay [3] (60 μM compound) is reported as “completely blocked”.
